From patent US11427574B2, “Compounds for treating Rac-GTPase mediated disorder” (Children's Medical Center Corporation, priority 2015, dated 2022)
pIC50: −log10 of the molar value.

Legend:
[1] = system: P12-Ichikawa cells; experiment: Proliferation assay in P12 leukemia cells; format: cell-based; settings: Homo sapiens, read-out: IC50, inhibition of proliferation
Method: Dose Dependent Inhibition of Proliferation The 100 compounds selected from the initial in silico screen were assayed for inhibition of proliferation in two leukemia cell lines, SEM and P12 by Cell Titer Glo. The cells for the proliferation assay were spun down and re-suspended. The cell suspension was then divided and the compound to be tested added in desired concentrations and subsequently plated. Following an incubation period, the Cell Titer Glo reagent (Promega CellTiter 96® Aqueous Non-Radioactive Cell Proliferation Assay) was added and allowed to incubate. The absorbance is subsequently measured at 490 nm using a plate reader. Each compound was analyzed for its effects on cell proliferation.
The lead compound, i.e. Compound 1, was analyzed for its effect on cell proliferation at various doses on three different leukemia cell lines: SEM, P12, and Loucy. In order to quantitate the percentage inhibition of cell proliferation, Cell Titer Glo analysis was completed as described in Example 2 above.
(§1) FIGS. 3a-3c show three graphs illustrating the dose dependent inhibition of proliferation of Compound 1 in SEM, P12, and Loucy cells as measured by MTS assay. […] Compound 1 was further analyzed for its effect on cell apoptosis and cell death using a flow based assay using Annexin V staining.

[2] = system: RAS; experiment: RAS activation pull down assay (Western blot); format: cell-based; settings: Western Blot (FIG. 11b)
Text: (§2) Compound 1 was further tested to evaluate its effect on RHOA and RAS activation.

[3] = system: 12 GPCRs; experiment: GPCR profiling, whole panel; format: binding; settings: summary of Table 2, antagonist and agonist
Method: (§3) Compound 1 was tested for its efficacy in inhibiting activities of 40 kinases and binding with 12 GPCRs both as an antagonist and an agonist.

[4] = system: SEM cell line; experiment: Annexin V flow assay for apoptosis and cell death, SEM; format: cell-based; settings: Annexin V staining
Text: as §1
Compound 2 was further analyzed for its effect on cell apoptosis and cell death using a flow based assay using Annexin V staining.

[5] = molecular target: T1, CDC42 (Homo sapiens, UniProt P60953); experiment: CDC42 activation pull down assay (Western blot); format: cell-based; settings: Western Blot (FIG. 10a)
T1 construct: endogenous in cells
T1 sequence (P60953 whole entry): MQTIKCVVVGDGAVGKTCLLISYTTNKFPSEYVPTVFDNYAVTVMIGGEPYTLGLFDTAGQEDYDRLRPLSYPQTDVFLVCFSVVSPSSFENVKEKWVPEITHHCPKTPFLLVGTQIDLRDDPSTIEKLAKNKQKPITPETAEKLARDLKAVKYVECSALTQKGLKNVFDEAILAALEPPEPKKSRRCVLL
Method: To determine which of these compounds should be further pursued, a biochemical pull down assay was performed to confirm specific inhibition of Rac activation indicated by disruption of the interaction between Rac and […]. The assay initially required treatment of cells followed by pull down and analysis with Western blot. The cells were first starved in serum free media for 2 hours. They were then re-suspended in serum-containing medium and inhibitors added at desired concentration. Following incubation for the desired length of time, the cells were pelleted and lysed with Magnesium Lysis Buffer (Millipore Mg^2+ lysis/wash buffer). The Rac protein and any bound proteins were then collected with Pak Beads (Millipore Rac/cdc42 Assay Reagent (PAK-1 PBD, agarose). Bound protein was subsequently removed with lysis buffer and subject to Western Blot analysis.
Compound 1 was tested to evaluate its effect on CDC42 activation. In this case, beads for the immunoprecipitation were coated with a CDC42 effector domain. […] The Western Blot and pull down analyses are also shown for DMSO and […].

[6] = system: SEM leukemic cell line; experiment: In vivo SEM leukemia model in NSG mice; settings: 250 mg/Kg twice a day for 21 days
Method: Compound 1 was assayed for its pharmacokinetics and anti-leukemia activities in mice. Specifically, a SEM leukemic cell line was labeled with a vector encoding the mCherry tag and Luciferase. 500,000 labeled cells were injected into immunodeficient mice (NSG mice). After establishment of leukemia (as assessed by bioluminescent imaging), mice were treated with Compound 1 at a dose 250 mg/Kg or a vehicle for 21 days twice a day. During treatment, mice were imaged every other day and BLI recorded and analyzed. 2 hours after the last dose, animals were sacrificed and organs harvested for PK and PD analysis.
FIGS. 8b and 8c show the bioluminescence data obtained from the mice treated with Compound 1 and a vehicle when the mice were imaged in a supine position and a prone position, respectively.

[7] = molecular target: LIMK1 (Homo sapiens, UniProt P53667); experiment: Kinase screening; format: biochemical
Method: as §3

[8] = molecular target: CDK5/p25 (Homo sapiens, UniProt Q00535); experiment: Kinase screening; format: biochemical
Method: as §3

[9] = molecular target: ABL1 (Homo sapiens, UniProt P00519); experiment: Kinase screening; format: biochemical
Method: as §3

[10] = molecular target: AKT1 (PKB alpha) (Homo sapiens, UniProt P31749); experiment: Kinase screening; format: biochemical
Sequence of AKT1 (PKB alpha) (P31749 whole entry, species assumed): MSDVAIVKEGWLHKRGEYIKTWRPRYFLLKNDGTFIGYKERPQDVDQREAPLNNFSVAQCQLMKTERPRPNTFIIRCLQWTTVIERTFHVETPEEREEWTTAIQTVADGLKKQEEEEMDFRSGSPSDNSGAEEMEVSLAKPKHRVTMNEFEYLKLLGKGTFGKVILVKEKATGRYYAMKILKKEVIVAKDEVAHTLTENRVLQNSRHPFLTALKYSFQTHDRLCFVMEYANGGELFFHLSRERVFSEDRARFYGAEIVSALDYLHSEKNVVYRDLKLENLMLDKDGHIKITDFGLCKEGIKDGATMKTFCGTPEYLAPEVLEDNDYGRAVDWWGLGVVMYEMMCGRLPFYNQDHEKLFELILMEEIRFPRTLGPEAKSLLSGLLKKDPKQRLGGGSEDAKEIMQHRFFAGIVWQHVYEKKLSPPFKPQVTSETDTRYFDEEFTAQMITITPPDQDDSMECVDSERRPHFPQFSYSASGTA
Method: as §3

[11] = molecular target: PIK3C3 (hVPS34) (Homo sapiens, UniProt Q8NEB9); experiment: Kinase screening; format: biochemical
Sequence of PIK3C3 (hVPS34) (Q8NEB9 whole entry): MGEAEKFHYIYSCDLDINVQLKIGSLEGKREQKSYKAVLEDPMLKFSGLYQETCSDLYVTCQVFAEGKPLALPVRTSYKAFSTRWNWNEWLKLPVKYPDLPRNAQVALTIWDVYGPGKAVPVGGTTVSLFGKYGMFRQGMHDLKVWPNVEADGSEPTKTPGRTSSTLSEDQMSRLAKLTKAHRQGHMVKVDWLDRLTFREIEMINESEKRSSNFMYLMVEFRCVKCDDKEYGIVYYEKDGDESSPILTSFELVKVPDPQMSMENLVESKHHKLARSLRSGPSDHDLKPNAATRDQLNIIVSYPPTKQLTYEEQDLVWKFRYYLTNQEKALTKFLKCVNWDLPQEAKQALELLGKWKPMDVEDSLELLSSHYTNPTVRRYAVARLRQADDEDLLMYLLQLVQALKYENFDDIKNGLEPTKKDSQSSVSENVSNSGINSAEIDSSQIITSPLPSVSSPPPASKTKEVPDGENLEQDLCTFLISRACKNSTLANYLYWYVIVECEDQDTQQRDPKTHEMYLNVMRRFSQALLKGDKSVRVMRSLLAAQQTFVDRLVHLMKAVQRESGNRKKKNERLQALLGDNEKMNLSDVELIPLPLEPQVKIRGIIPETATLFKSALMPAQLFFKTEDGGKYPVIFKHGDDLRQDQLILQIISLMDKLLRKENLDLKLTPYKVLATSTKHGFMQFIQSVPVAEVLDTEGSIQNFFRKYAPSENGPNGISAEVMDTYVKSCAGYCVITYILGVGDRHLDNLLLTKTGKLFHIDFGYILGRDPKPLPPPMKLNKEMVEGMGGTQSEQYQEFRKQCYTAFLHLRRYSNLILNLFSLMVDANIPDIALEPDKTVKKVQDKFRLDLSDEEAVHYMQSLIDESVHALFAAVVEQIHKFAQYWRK
Method: as §3

[12] = molecular target: PIK3CA/PIK3R1 (p110 alpha/p85 alpha) (Homo sapiens, UniProt P42336); experiment: Kinase screening; format: biochemical
Sequence of PIK3CA/PIK3R1 (p110 alpha/p85 alpha) (P42336 whole entry, species assumed): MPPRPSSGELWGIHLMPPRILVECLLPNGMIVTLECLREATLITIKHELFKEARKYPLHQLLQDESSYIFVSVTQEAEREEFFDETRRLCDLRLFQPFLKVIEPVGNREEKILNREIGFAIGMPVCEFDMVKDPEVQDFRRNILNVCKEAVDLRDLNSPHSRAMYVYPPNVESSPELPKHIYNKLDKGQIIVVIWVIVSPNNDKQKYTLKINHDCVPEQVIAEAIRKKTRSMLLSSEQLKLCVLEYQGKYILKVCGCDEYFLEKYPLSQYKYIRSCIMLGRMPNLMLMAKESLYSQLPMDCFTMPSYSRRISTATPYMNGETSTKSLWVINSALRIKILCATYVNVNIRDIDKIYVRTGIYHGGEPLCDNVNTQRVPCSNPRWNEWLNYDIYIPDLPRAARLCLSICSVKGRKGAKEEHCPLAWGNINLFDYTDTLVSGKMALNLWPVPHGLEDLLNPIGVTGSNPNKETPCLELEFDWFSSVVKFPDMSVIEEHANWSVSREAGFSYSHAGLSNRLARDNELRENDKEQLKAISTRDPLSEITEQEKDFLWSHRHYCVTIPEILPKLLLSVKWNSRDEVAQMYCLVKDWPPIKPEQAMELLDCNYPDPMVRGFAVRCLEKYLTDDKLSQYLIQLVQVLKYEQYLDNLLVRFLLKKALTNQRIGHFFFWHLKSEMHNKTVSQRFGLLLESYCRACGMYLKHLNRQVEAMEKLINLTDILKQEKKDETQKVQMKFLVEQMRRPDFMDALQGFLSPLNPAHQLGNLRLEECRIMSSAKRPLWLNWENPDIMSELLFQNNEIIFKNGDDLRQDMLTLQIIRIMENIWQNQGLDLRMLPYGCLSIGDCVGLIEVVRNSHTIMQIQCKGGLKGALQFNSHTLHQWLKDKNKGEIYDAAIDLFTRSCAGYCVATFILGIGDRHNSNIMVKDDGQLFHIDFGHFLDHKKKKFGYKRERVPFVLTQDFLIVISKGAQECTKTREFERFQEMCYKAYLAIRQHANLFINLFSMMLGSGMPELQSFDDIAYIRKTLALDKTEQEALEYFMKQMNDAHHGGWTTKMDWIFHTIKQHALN
Sequence of PIK3CA/PIK3R1 (p110 alpha/p85 alpha) (P27986 whole entry partner, species assumed): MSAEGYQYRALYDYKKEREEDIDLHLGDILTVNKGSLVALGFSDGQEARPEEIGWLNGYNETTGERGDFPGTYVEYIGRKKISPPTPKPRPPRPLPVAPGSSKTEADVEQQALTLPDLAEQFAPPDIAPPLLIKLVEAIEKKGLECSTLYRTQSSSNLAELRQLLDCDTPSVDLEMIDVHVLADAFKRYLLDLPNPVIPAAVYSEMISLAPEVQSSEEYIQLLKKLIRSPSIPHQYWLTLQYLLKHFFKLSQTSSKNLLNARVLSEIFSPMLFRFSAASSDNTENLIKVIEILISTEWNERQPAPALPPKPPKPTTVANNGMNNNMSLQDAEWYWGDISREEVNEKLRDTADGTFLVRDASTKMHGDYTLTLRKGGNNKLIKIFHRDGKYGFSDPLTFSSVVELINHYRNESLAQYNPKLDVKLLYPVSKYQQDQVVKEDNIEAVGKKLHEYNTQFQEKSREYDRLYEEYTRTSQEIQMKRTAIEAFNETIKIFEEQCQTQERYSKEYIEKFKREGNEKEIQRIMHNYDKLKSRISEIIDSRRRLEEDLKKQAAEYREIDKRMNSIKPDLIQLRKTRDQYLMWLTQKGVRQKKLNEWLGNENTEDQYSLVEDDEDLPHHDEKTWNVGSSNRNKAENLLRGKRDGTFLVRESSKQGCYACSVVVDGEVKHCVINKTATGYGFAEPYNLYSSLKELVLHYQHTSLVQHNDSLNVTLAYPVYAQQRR
Method: as §3

[13] = molecular target: FLT3 (Homo sapiens, UniProt P36888); experiment: Kinase screening; format: biochemical
Method: as §3

[14] = molecular target: CDC42 BPB (MRCKB) (Homo sapiens, UniProt Q9Y5S2); experiment: Kinase screening; format: biochemical
Sequence of CDC42 BPB (MRCKB) (Q9Y5S2 whole entry, species assumed): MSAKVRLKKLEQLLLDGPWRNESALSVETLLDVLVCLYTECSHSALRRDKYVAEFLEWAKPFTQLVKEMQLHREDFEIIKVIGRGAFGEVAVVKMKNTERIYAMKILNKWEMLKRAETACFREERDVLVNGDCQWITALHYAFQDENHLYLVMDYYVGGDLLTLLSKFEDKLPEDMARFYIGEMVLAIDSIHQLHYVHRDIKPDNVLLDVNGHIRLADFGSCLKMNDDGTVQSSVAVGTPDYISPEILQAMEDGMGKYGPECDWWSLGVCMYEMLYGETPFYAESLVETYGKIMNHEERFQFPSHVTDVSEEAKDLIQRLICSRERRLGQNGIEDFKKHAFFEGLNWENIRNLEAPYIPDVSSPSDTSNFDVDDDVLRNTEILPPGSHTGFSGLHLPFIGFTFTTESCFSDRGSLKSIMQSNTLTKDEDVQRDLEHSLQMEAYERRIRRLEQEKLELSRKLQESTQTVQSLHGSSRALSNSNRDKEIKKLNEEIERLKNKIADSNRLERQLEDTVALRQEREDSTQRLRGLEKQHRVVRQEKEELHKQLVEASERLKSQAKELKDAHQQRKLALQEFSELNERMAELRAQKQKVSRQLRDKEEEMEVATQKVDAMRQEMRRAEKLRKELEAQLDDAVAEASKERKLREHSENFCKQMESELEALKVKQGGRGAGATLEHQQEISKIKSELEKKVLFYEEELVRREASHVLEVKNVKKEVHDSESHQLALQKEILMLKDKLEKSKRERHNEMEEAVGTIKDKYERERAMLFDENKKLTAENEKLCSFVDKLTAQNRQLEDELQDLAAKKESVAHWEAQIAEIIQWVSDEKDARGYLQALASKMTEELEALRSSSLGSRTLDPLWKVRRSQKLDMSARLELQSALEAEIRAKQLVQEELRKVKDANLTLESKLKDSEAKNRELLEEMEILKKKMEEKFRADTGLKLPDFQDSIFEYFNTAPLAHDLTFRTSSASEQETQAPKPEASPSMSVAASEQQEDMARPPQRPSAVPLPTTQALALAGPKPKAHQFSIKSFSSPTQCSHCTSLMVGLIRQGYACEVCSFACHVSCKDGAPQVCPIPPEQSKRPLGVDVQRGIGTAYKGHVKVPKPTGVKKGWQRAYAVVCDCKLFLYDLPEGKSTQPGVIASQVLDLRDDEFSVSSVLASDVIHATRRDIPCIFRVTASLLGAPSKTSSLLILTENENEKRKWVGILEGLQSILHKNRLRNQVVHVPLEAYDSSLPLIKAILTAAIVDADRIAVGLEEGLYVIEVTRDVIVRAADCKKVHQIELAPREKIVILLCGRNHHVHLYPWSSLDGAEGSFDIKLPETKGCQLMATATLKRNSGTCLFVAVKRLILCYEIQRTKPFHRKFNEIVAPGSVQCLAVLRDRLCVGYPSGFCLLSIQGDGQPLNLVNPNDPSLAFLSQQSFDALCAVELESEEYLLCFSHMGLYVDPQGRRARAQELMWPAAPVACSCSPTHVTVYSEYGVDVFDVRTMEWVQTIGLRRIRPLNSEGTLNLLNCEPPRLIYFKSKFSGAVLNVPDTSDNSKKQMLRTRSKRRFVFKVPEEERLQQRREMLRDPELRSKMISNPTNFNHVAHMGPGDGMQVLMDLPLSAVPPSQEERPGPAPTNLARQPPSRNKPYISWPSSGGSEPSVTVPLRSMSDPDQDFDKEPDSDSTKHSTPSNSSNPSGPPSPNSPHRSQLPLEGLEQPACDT
Method: as §3

[15] = molecular target: MAPK9 (JNK2) (Homo sapiens, UniProt P45984); experiment: Kinase screening; format: biochemical
Method: as §3

[16] = molecular target: CDC42 BPA (MRCKA) (Homo sapiens, UniProt Q5VT25); experiment: Kinase screening; format: biochemical
Method: as §3

[17] = molecular target: MYLK (MLCK) (Homo sapiens, UniProt Q15746); experiment: Kinase screening; format: biochemical
Method: as §3

[18] = molecular target: AKT2 (PKB beta) (Homo sapiens, UniProt P31751); experiment: Kinase screening; format: biochemical
Method: as §3

[19] = molecular target: KIT (Homo sapiens, UniProt P10721); experiment: Kinase screening; format: biochemical
Method: as §3

[20] = molecular target: Tiam1-Rac complex (Homo sapiens, UniProt P63000); experiment: Homologous time resolved fluorescence (HTRF) binding assay
Method: Compound 1 was tested for its efficacy in binding with Rac1 in two independent binding assays, i.e., 2D NMR spectroscopy and Homologous time resolved fluorescence assay (HTRF).
In the 2D NMR assay, samples containing 50 μM Rac1 and 250 μM or 400 μM Compound 1 were used.
Compound 2 was tested for its efficacy in binding with Rac1 in two independent binding assays, i.e., 2D NMR spectroscopy and Homologous time resolved fluorescence assay (HTRF).
In the 2D NMR assay, a sample containing 50 μM Rac1 and 250 μM Compound 2 was used.

[21] = molecular target: T2, RHOA (Homo sapiens, UniProt P61586); experiment: RHOA activation pull down assay (Western blot); format: cell-based; settings: Western Blot (FIG. 11a)
T2 construct: endogenous in cells
Text: as §2

CCc1ccc(CN(C)C(=O)CCc2nnc(CCc3c[nH]c4ccccc34)o2)nc1 (racemic) [Compound 1]
pIC50 [1]: 4.41 | RAS activation [2]: no significant effect | binding to the 12 GPCRs tested [3]: no significant binding | cell apoptosis and cell death [4]: caused cells apoptosis and cell death | total CDC42 levels [5]: no significant effect | CDC42 activation ([5]; pull down): dose dependent reduction | relative weight of the mice ([6]; vs vehicle group): nearly identical | bioluminescence in the mice ([6]; imaged in supine or prone position, vs vehicle): significantly reduced | inhibition percentage [7]: −1.1 percentage | inhibition percentage [8]: 1.0 percentage | inhibition percentage [9]: 0.6 percentage | inhibition percentage [10]: −6.7 percentage | inhibition percentage [11]: −12.5 percentage | inhibition percentage [12]: 11.0 percentage | inhibition percentage [13]: −15.3 percentage | inhibition percentage [14]: 3.3 percentage | inhibition percentage [15]: 10.9 percentage | inhibition percentage [16]: 2.8 percentage | inhibition percentage [17]: 1.2 percentage | inhibition percentage [18]: 11.5 percentage | inhibition percentage [19]: −4.2 percentage | binding in the HTRF assay [20]: no binding was observed | RHOA activation [21]: no significant effect
